# Laboratory results as given in patent US20230241226A1, “COMPOUNDS FOR TARGETED DEGRADATION OF CARRIER PROTEINS AND USES THEREOF” (CeMM - Forschungszentrum für Molekulare Medizin GmbH, priority 2019, published 2023).
# “Also recorded” adds a separate entry of the source.
# Target: T1, dTAG-HA SLC38A2 (knock-in) (Homo sapiens, UniProt Q96QD8+Q96SW2)
# T1 construct: SLC38A2 was selected for endogenous tagging at the N-terminus; endogenous in cells
# Test: dTAG knock-in: degradation of endogenously tagged SLC38A2 induced by amino acid starvation
# Assay type: cell-based
# From the text: (A) dTAG knock-in: SLC38A2 was tagged at N-terminus with dTAG-HA. Blasticidn was used as the selection marker. Single cell clones were derived and characterized as previously described. Two representative clones, B7 and C9 are presented here.
# (B) The expression of dTAG-HA SLC38A2 was induced by replacing the normal culture media with media deprived of amino acids and FBS. Expression of the endogenous SLC is induced rapidly and was monitored by immunofluorescence imaging and quantified by automated image analysis. Representative images are shown.
# (C)The effect of amino acid starvation on dTAG-HA SLC38A2 expression in HAP1 cells. Cells were treated with 0.5 µM dTAG13 and/or media lacking amino acids/FBS for either 6 or 10 hours, after which expression and degradation were monitored via western blot.
# (D) Immunofluorescence imaging of two different HAP1 clones expressing dTAG-HA SLC38A2. Cells were incubated in media lacking amino acids/FBS for 8 hours and treated with 0.5 µM dTAG13 for either 8 or 10 hours. Expression of the endogenous SLC is induced rapidly and was monitored by immunofluorescence and quantified by automated image analysis. Representative images are presented.
# HEK293T, LS180 were obtained from ATCC (Manassas, VA, USA), HAP1 WT, HAP1 -/-SLC38A2 (HZGHC001975c003), HAP1 -/-SLC38A9 (HZGHC000777c011) were obtained from Horizon Genomics. […]
# For immunoblotting, whole cell extracts were prepared using RIPA lysis buffer (25 mM Tris/HCl pH 7.6, 150 mM NaCl, 1% NP-40, 1% sodium deoxycholate, 0.1% SDS, EDTA-free protease inhibitor (Roche) and phosphatase inhibitors 2+3 (Sigma- Aldrich)). […] Protein extracts were quantified and normalized using the BCA assay (Thermo Scientific). […]
# T1 sequence (Q96SW2 whole entry): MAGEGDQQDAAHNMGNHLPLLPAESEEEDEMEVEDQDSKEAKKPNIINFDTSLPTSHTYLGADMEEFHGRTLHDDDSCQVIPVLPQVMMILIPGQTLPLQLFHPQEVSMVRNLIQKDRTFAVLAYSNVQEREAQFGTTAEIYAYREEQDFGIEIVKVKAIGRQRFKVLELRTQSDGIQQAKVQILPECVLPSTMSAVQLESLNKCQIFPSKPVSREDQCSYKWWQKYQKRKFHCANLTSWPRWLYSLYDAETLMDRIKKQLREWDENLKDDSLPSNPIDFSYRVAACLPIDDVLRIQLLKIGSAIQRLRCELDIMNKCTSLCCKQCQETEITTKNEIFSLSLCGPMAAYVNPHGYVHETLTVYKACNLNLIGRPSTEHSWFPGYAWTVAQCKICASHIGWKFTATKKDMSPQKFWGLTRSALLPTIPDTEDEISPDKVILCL
# T1 sequence (Q16531 whole entry, further chain): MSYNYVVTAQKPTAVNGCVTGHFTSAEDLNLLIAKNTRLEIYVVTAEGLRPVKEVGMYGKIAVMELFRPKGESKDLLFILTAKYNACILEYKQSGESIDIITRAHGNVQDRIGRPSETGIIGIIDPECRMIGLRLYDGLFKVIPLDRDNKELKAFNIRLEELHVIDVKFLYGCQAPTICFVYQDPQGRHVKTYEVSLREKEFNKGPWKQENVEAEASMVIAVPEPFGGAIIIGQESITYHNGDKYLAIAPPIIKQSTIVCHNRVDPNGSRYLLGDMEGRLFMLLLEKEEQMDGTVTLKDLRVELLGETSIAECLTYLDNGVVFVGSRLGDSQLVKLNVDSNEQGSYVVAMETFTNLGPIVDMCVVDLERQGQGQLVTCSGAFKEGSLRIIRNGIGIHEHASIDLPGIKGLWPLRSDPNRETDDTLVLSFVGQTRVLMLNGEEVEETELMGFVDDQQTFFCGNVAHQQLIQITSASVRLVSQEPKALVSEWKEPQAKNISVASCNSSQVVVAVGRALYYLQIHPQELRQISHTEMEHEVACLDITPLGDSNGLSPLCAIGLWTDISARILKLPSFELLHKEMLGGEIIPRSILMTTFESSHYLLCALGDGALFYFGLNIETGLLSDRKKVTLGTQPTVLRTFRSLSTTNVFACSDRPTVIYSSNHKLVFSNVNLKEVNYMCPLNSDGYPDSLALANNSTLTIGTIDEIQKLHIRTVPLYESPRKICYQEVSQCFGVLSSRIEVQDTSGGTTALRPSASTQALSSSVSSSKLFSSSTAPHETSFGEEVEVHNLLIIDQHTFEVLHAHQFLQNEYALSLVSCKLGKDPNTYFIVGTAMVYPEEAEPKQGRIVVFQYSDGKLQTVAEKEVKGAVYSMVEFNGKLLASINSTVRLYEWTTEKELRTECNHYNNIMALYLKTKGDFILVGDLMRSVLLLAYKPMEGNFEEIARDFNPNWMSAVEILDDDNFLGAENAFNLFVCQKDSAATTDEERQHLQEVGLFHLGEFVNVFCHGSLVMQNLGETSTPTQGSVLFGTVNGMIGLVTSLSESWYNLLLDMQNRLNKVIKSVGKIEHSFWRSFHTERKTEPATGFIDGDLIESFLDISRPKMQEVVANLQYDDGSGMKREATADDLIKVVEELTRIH
# T1 sequence (Q96QD8 other isoform, or with tags, fused parts or gaps): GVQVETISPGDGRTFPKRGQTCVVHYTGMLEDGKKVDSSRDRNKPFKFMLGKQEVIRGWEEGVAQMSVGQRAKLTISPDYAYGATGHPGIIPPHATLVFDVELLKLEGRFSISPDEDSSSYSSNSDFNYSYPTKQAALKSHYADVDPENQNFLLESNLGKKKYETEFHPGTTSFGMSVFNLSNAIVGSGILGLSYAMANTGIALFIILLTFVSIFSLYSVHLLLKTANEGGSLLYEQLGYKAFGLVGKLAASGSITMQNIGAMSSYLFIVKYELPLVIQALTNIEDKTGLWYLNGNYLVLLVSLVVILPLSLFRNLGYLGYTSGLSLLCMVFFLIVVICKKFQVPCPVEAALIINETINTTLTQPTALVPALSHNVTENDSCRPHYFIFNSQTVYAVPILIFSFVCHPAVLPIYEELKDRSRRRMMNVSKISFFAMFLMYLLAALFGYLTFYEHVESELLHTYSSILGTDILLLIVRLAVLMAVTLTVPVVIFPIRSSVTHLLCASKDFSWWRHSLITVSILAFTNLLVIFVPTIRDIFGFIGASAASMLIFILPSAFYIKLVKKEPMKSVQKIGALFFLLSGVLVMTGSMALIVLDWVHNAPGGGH
compound,measurement,setting,value
CC[C@H](C(=O)N1CCCC[C@H]1C(=O)O[C@H](CCc1ccc(OC)c(OC)c1)c1ccccc1OCC(=O)NCCCCCCOc1cccc2c1C(=O)N(C1CCC(=O)NC1=O)C2=O)c1cc(OC)c(OC)c(OC)c1 (stereo partly drawn) [dTAG13],degradation of knock-in dTAG-HA SLC38A2 (western blot),"HAP1, 0.5 µM cotreatment with media lacking amino acids/FBS, 6 or 10 hours",Near complete degradation
same,"SLC38A2 expression after pre-treatment (immunofluorescence, automated image analysis)","HAP1 knock-in clones, 0.5 µM, 2 hours pre-treatment, 8 hours starvation",completely abrogate any SLC expression; also recorded: completely ablated
same,reduction of SLC38A2 expression by co-treatment,"HAP1 knock-in clones, 0.5 µM, co-treatment with starvation 8 hours",more than 50%
